# How the values were obtained:
# Assay in all cases: viability relative to DMSO control (fraction); higher = less drug effect (more viable cells)
# Conditions in all cases: 48 h
# [1] = compound: COc1c(Cl)cc2c([nH]c3cnccc32)c1NC(=O)c1cccnc1C [MLN-120B]
# Method in brief: (§1)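 Viability was quantified by CellTiter-Glo luminescence and related to the median of 16 inner DMSO wells. Before that, primary mononuclear tumour cells, fresh or cryopreserved and Ficoll-isolated from blood or bone marrow or prepared from processed lymph node, were plated at 4 × 10^4 cells per well in 384-well plates containing pre-plated compounds at five concentrations, one well each. Plates were incubated in RPMI-1640 with penicillin/streptomycin, L-glutamine and human serum at 37 °C and 5% CO2 for 48 h.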
# [2] = compound: CC#CC(=O)N1CC[C@@H](n2c(=O)n(-c3ccc(Oc4ccccc4)cc3)c3c(N)ncnc32)C1 [ONO-4059]
# Method in brief: as §1
# [3] = compound: CN(C)C(=O)c1cc2cnc(Nc3ccc(N4CCNCC4)cn3)nc2n1C1CCCC1 [Ribociclib]
# Method in brief: as §1
# [4] = compound: Cc1ccc(NC(=O)c2ccc(CN3CCN(C)CC3)cc2)cc1Nc1nccc(-c2cccnc2)n1 [Imatinib]
# Method in brief: as §1
# [5] = compound: Cc1cn(-c2cc(NC(=O)c3ccc(C)c(Nc4nccc(-c5cccnc5)n4)c3)cc(C(F)(F)F)c2)cn1 [Nilotinib]
# Method in brief: as §1
# [6] = compound: CC[C@H](NC(=O)[C@H](C)NC)C(=O)N1C[C@@H](O)C[C@H]1Cc1c(-c2[nH]c3cc(F)ccc3c2C[C@@H]2C[C@H](O)CN2C(=O)[C@H](CC)NC(=O)[C@H](C)NC)[nH]c2cc(F)ccc12 [Birinapant]
# Method in brief: as §1
# [7] = compound: COC1=CC(c2cc3ccccc3[nH]2)=N/C1=C\c1[nH]c(C)cc1C [Obatoclax mesylate]
# Method in brief: as §1
# [8] = compound: Cc1cc(Nc2cc(N3CCN(C)CC3)nc(Sc3ccc(NC(=O)C4CC4)cc3)n2)n[nH]1 [Tozasertib]
# Method in brief: as §1
# [9] = compound: CC(C)(C)OC(=O)Nc1ccc(-c2cc(C(=O)NCCCCCCC(=O)NO)no2)cc1
# Method in brief: as §1
# [10] = compound: O=C(CCCCCCC(=O)Nc1ccccc1)NO [Vorinostat]
# Method in brief: as §1
# [11] = compound: OC[C@H]1O[C@@H](n2cnc3c2N=CNC[C@H]3O)C[C@@H]1O [Pentostatin]
# Method in brief: as §1
# [12] = compound: CCCS(=O)(=O)Nc1ccc(F)c(C(=O)c2c[nH]c3ncc(-c4ccc(Cl)cc4)cc23)c1F [Vemurafenib]
# Method in brief: as §1
# [13] = compound: Nc1nc(Cl)nc2c1ncn2[C@H]1C[C@H](O)[C@@H](CO)O1 [Cladribine]
# Method in brief: as §1
# [14] = compound: Cc1[nH]c2ccccc2c1CCNCc1ccc(/C=C/C(=O)NO)cc1 [Panobinostat]
# Method in brief: as §1
# [15] = compound: CCOc1cc(C(=O)N2CCC(N3CCN(C)CC3)CC2)ccc1Nc1ncc2c(n1)N(C1CCCC1)c1ccccc1C(=O)N2C [ERK5-IN-1]
# Method in brief: as §1
# [16] = compound: O=C(NCC1(c2nc(-c3ccccc3)cs2)CCOCC1)c1cccc(-c2noc(C(F)(F)F)n2)c1 [TMP269]
# Method in brief: as §1
# [17] = compound: C#CCC(Cc1cnc2nc(N)nc(N)c2n1)c1ccc(C(=O)N[C@@H](CCC(=O)O)C(=O)O)cc1 [Pralatrexate]
# Method in brief: as §1
# [18] = compound: CC[C@]1(O)C[C@H]2CN(CCc3c([nH]c4ccccc34)[C@@](C(=O)OC)(c3cc4c(cc3OC)N(C=O)[C@H]3[C@@](O)(C(=O)OC)[C@H](OC(C)=O)[C@]5(CC)C=CCN6CC[C@]43[C@@H]65)C2)C1 [Vincristine]
# Method in brief: as §1
# [19] = compound: CC[C@@H]1C(=O)N(C)c2cnc(Nc3ccc(C(=O)N[C@H]4CC[C@H](N5CCN(CC6CC6)CC5)CC4)cc3OC)nc2N1C(C)C [BI6727]
# Method in brief: as §1
# [20] = compound: NC(=O)Nc1cc(-c2cccc(F)c2)sc1C(=O)N[C@H]1CCCNC1 [AZD7762]
# Method in brief: as §1
test system,measurement,setting,value
primary AML patient cells (S007),viability,[1]; 0.024 µM,0.816
same,viability,[1]; 0.12 µM,0.781
same,viability,[1]; 0.6 µM,0.728
same,viability,[1]; 3 µM,0.605
same,viability,[1]; 15 µM,0.375
same,viability,[2]; 0.0016 µM,0.967
same,viability,[2]; 0.008 µM,0.928
same,viability,[2]; 0.04 µM,0.962
same,viability,[2]; 0.2 µM,1.03
same,viability,[2]; 1 µM,0.804
same,viability,[3]; 0.024 µM,0.949
same,viability,[3]; 0.12 µM,0.904
same,viability,[3]; 0.6 µM,0.766
same,viability,[3]; 3 µM,0.308
same,viability,[4]; 0.016 µM,1.16
same,viability,[4]; 0.08 µM,0.987
same,viability,[4]; 0.4 µM,1.08
same,viability,[4]; 2 µM,0.765
same,viability,[4]; 10 µM,0.319
same,viability,[5]; 0.016 µM,1.19
same,viability,[5]; 0.08 µM,1.23
same,viability,[5]; 0.4 µM,1.24
same,viability,[5]; 2 µM,1.04
same,viability,[5]; 10 µM,1.31
same,viability,[6]; 0.0008 µM,0.866
same,viability,[6]; 0.004 µM,0.744
same,viability,[6]; 0.02 µM,0.573
same,viability,[6]; 0.1 µM,0.384
same,viability,[6]; 0.5 µM,0.321
same,viability,[7]; 0.024 µM,0.717
same,viability,[7]; 0.12 µM,0.684
same,viability,[7]; 0.6 µM,0.659
same,viability,[7]; 3 µM,0.254
same,viability,[7]; 15 µM,0.0248
primary AML patient cells (S027),viability,[2]; 0.0016 µM,0.958
same,viability,[2]; 0.008 µM,1.06
same,viability,[2]; 0.04 µM,0.945
same,viability,[2]; 0.2 µM,0.943
same,viability,[2]; 1 µM,1.01
same,viability,[3]; 0.024 µM,1.02
same,viability,[3]; 0.12 µM,1.03
same,viability,[3]; 0.6 µM,1.03
same,viability,[3]; 3 µM,0.938
same,viability,[3]; 15 µM,0.832
same,viability,[4]; 0.016 µM,1.17
same,viability,[4]; 0.08 µM,1.17
same,viability,[4]; 0.4 µM,1.18
same,viability,[4]; 10 µM,1.05
same,viability,[8]; 0.024 µM,1.01
same,viability,[8]; 0.12 µM,0.906
same,viability,[8]; 0.6 µM,0.93
same,viability,[8]; 3 µM,0.881
primary AML patient cells (S044),viability,[4]; 0.08 µM,1.06
same,viability,[4]; 0.4 µM,1
same,viability,[4]; 2 µM,0.924
same,viability,[4]; 10 µM,0.823
primary AML patient cells (S054),viability,[4]; 0.016 µM,1.05
same,viability,[4]; 0.08 µM,1.05
same,viability,[4]; 0.4 µM,1
same,viability,[4]; 2 µM,0.962
same,viability,[4]; 10 µM,0.807
primary DLBCL patient cells (S049),viability,[9]; 0.024 µM,0.925
same,viability,[9]; 0.12 µM,0.678
same,viability,[9]; 0.6 µM,0.327
same,viability,[9]; 3 µM,0.0379
same,viability,[9]; 15 µM,0.0222
same,viability,[10]; 0.016 µM,0.996
same,viability,[10]; 0.08 µM,0.899
same,viability,[10]; 0.4 µM,0.797
same,viability,[10]; 2 µM,0.0724
same,viability,[10]; 10 µM,0.0247
same,viability,[11]; 0.03 µM,1.09
same,viability,[11]; 0.15 µM,0.953
same,viability,[11]; 0.75 µM,1.02
same,viability,[11]; 3.75 µM,0.907
same,viability,[11]; 18.76 µM,0.839
same,viability,[12]; 0.024 µM,0.847
same,viability,[12]; 0.12 µM,0.935
same,viability,[12]; 0.6 µM,0.934
same,viability,[12]; 3 µM,0.957
same,viability,[12]; 15 µM,0.911
same,viability,[13]; 0.024 µM,0.918
same,viability,[13]; 0.12 µM,0.853
same,viability,[13]; 0.6 µM,0.512
same,viability,[13]; 3 µM,0.399
same,viability,[13]; 15 µM,0.305
same,viability,[1]; 0.024 µM,0.954
same,viability,[1]; 0.12 µM,0.902
same,viability,[1]; 0.6 µM,0.946
same,viability,[1]; 3 µM,0.868
same,viability,[1]; 15 µM,0.741
same,viability,[14]; 0.00064 µM,1.09
same,viability,[14]; 0.0032 µM,0.896
same,viability,[14]; 0.016 µM,0.0566
same,viability,[14]; 0.08 µM,0.0257
same,viability,[14]; 0.4 µM,0.0265
same,viability,[15]; 0.024 µM,1.04
same,viability,[15]; 0.12 µM,1.04
same,viability,[15]; 0.6 µM,0.717
same,viability,[15]; 3 µM,0.177
same,viability,[15]; 15 µM,0.045
same,viability,[2]; 0.0016 µM,0.823
same,viability,[2]; 0.008 µM,0.761
same,viability,[2]; 0.04 µM,0.687
same,viability,[2]; 0.2 µM,0.716
same,viability,[2]; 1 µM,0.649
same,viability,[3]; 0.024 µM,1
same,viability,[3]; 0.12 µM,1.02
same,viability,[3]; 0.6 µM,0.976
same,viability,[3]; 3 µM,0.752
same,viability,[3]; 15 µM,0.29
same,viability,[16]; 0.024 µM,1.03
same,viability,[16]; 0.12 µM,1.08
same,viability,[16]; 0.6 µM,1.1
same,viability,[16]; 3 µM,1.01
same,viability,[16]; 15 µM,0.961
same,viability,[17]; 0.024 µM,1.02
same,viability,[17]; 0.12 µM,0.803
same,viability,[17]; 0.6 µM,0.897
same,viability,[17]; 3 µM,0.899
same,viability,[17]; 15 µM,0.928
same,viability,[18]; 0.016 µM,0.123
same,viability,[18]; 0.08 µM,0.101
same,viability,[18]; 0.4 µM,0.104
same,viability,[18]; 2 µM,0.132
same,viability,[18]; 10 µM,0.121
same,viability,[19]; 0.024 µM,0.902
same,viability,[19]; 0.12 µM,0.898
same,viability,[19]; 0.6 µM,0.711
same,viability,[19]; 3 µM,0.228
same,viability,[19]; 15 µM,0.0414
same,viability,[20]; 0.024 µM,0.697
same,viability,[20]; 0.12 µM,0.337
same,viability,[20]; 0.6 µM,0.277
same,viability,[20]; 3 µM,0.344
same,viability,[20]; 15 µM,0.163
same,viability,[7]; 0.024 µM,0.827
same,viability,[7]; 0.12 µM,0.773
same,viability,[7]; 0.6 µM,0.538
same,viability,[7]; 3 µM,0.343
same,viability,[7]; 15 µM,0.0387

# Reference: the supplement of paper PMC10733146
